Experimental data published in patent US8318792B2, “Therapeutic agent for amyotrophic lateral sclerosis” (Nippon Medical School Foundation, priority 2006, dated 2012).

Tests used:
Type in all cases: in vivo, mouse
[1] = test system: G1H-G93A transgenic mice; test: Exercise tolerance test: beam balance test; settings: 5 mg/kg oral daily from 80th day (before onset), score 0-2
Description: (§1) The following five kinds of exercise tolerance tests were conducted every fifth day from the 70th day after birth to evaluate the ability to exercise in the respective exercise tolerance tests. That is, the days for the exercise tolerance tests were every fifth days, such as the 70th day, 75th day, 80th day, 85th day and so on, after birth. The exercise tolerance tests were conducted throughout the survival period, and the post-mortem evaluation was based on the definitions of the following five kinds of exercise tolerance tests.
The apparatus used in the beam balance test is constructed by maintaining a wooden beam having a diameter of 1.5 cm horizontally, and installing platforms which serve as footholds, on the respective sides in a distance of 30 cm. A mouse is placed on the platform on one side, and the time taken by the mouse to cross over the beam which is 30 cm in length and to arrive at the platform on the opposite side is measured. The evaluation of the beam balance test for the mouse was performed based on the following criteria: Score 0=The time is 10 seconds or less; Score 1=The time is more than 10 seconds to 15 seconds; and Score 2=The time is more than 15 seconds, or the mouse falls down. The post-mortem evaluation of the beam balance test is defined as score 2.

[2] = test system: G1H-G93A transgenic mice; test: Exercise tolerance test: inclined plane test; settings: for Inclined plane test score: 5 mg/kg oral daily from 80th day (before onset), score 0-3, 5 mg/kg; for effect in inclined plane test as compared to placebo group: 110th, 115th, 120th, 125th and 130th day, 5 mg/kg oral daily from 80th day after birth, Mann-Whitney's U test
Description: as §1
The apparatus used in the inclined plane test is an apparatus allowing a wooden board to be fixed at the respective angles of 45°, 65° and 80° from a horizontal plane. A mouse is placed in the posture of head-up position on the wooden board inclined at each angle and the mouse is allowed to maintain this position for 5 seconds without falling downward. In the evaluation method of the inclined plane test for each mouse, the number of seconds (TA seconds: 5 seconds or less) during which the position could be maintained without falling downward is measured at each of the angles (A) of 45°, 65° and 80°, and then the total sum value of the products of the angle (A) and the number of seconds (TA) during which the position could be maintained: Σ [Angle(A)×Time (TA)] is calculated. Since a normal mouse is capable of maintaining the position on the wooden board inclined to the respective angles for 5 seconds, the sum value of Σ [Angle(A)×Time (TA)] will be 80×5+65×5+45×5=950. The evaluation of the inclined plane test for the mouse was performed based on the following criteria: Score 0=950; Score 1=over 550 to less than 950; Score 2=over 225 to 550; and Score 3=225 and below. The post-mortem evaluation of the inclined plane test is defined as score 3.

[3] = test system: G1H-G93A transgenic mice; test: Exercise tolerance test: rotarod test; settings: for Rotarod test score: 5 mg/kg oral daily from 80th day (before onset), score 0-3; for effect in rotarod test as compared to placebo group: 105th, 110th and 115th day, 5 mg/kg oral daily from 80th day after birth, Mann-Whitney's U test
Description: as §1
The apparatus used in the Rotarod test (Rota Rod Treadmill type 7600, Ugo Basile Co., Milano, Italy) is a rotating axle having a diameter of 3.6 cm, and this rotating axle is set up so as to have 16 revolution per minute (one rotation: 3.75 seconds). The period for which a mouse can remain on a rotating axle without falling is measured. The evaluation of the rotarod test for the mouse was performed based on the following criteria: Score 0=The time exceeds 60 seconds; Score 1=The time is more than 30 seconds and 60 seconds or less; Score 2=The time is more than 4 seconds and 30 seconds or less; and Score 3=The time is 4 seconds or less. The post-mortem evaluation of the rotarod test is defined as score 3.

[4] = from the 130th day to 140th day after birth
[5] = from the 125th day to 140th day after birth

## CC(C)(C)COc1ccc(-n2cc(C(=O)O)cn2)cc1C#N [compound (a), 1-[3-cyano-4-(2,2-dimethylpropoxy)phenyl]-1H-pyrazole-4-carboxylic acid]
[1]; 70th day after birth, 5 mg/kg
  Beam balance test score: 0.0±0.0
[1]; 75th day after birth, 5 mg/kg
  Beam balance test score: 0.0±0.0
[1]; 80th day after birth, 5 mg/kg
  Beam balance test score: 0.0±0.0
[1]; 85th day after birth, 5 mg/kg
  Beam balance test score: 0.0±0.0
[1]; 90th day after birth, 5 mg/kg
  Beam balance test score: 0.0±0.0
[1]; 95th day after birth, 5 mg/kg
  Beam balance test score: 0.0±0.0
[1]; 100th day after birth, 5 mg/kg
  Beam balance test score: 0.0±0.0
[1]; 105th day after birth, 5 mg/kg
  Beam balance test score: 0.0±0.0
[1]; 110th day after birth, 5 mg/kg
  Beam balance test score: 0.1±0.3
[1]; 115th day after birth, 5 mg/kg
  Beam balance test score: 0.7±0.8
[1]; 120th day after birth, 5 mg/kg
  Beam balance test score: 1.2±0.9
[1]; 125th day after birth, 5 mg/kg
  Beam balance test score: 1.7±0.5
[1]; 130th day after birth
  Beam balance test score: 2.0 ± 0.0
[1]; 135th day after birth
  Beam balance test score: 2.0 ± 0.0
[1]; 140th day after birth
  Beam balance test score: 2.0 ± 0.0
[1]; [4]
  Beam balance test score: 2.0±0.0
[2]; 70th day after birth
  Inclined plane test score: 0.0±0.0
[2]; 75th day after birth
  Inclined plane test score: 0.0±0.0
[2]; 80th day after birth
  Inclined plane test score: 0.0±0.0
[2]; 85th day after birth
  Inclined plane test score: 0.0±0.0
[2]; 90th day after birth
  Inclined plane test score: 0.0±0.0
[2]; 95th day after birth
  Inclined plane test score: 0.0±0.0
[2]; 100th day after birth
  Inclined plane test score: 0.0±0.0
[2]; 105th day after birth
  Inclined plane test score: 0.0±0.0
[2]; 110th day after birth
  Inclined plane test score: 0.0±0.0
[2]
  effect in inclined plane test as compared to placebo group: significant effects
[2]; 115th day after birth
  Inclined plane test score: 0.1±0.3
[2]; 120th day after birth
  Inclined plane test score: 0.4±0.5
[2]; 125th day after birth
  Inclined plane test score: 1.1±0.9
[2]; 130th day after birth
  Inclined plane test score: 2.1±0.9
[2]; 135th day after birth
  Inclined plane test score: 2.7±0.5
[2]; 140th day after birth
  Inclined plane test score: 3.0±0.0
[3]; 70th day after birth, 5 mg/kg
  Rotarod test score: 0.0±0.0
[3]; 75th day after birth, 5 mg/kg
  Rotarod test score: 0.0±0.0
[3]; 80th day after birth, 5 mg/kg
  Rotarod test score: 0.0±0.0
[3]; 85th day after birth, 5 mg/kg
  Rotarod test score: 0.0±0.0
[3]; 90th day after birth, 5 mg/kg
  Rotarod test score: 0.0±0.0
[3]; 95th day after birth, 5 mg/kg
  Rotarod test score: 0.0±0.0
[3]; 100th day after birth, 5 mg/kg
  Rotarod test score: 0.0±0.0
[3]; 105th day after birth, 5 mg/kg
  Rotarod test score: 0.0±0.0
[3]
  effect in rotarod test as compared to placebo group: significant effects
[3]; 110th day after birth, 5 mg/kg
  Rotarod test score: 0.3±0.7
[3]; 115th day after birth, 5 mg/kg
  Rotarod test score: 1.2±1.3
[3]; 120th day after birth, 5 mg/kg
  Rotarod test score: 2.2±0.9
[3]; 125th day after birth, 5 mg/kg
  Rotarod test score: 2.7±0.5
[3]; 130th day after birth
  Rotarod test score: 3.0 ± 0.0
[3]; 135th day after birth
  Rotarod test score: 3.0 ± 0.0
[3]; 140th day after birth
  Rotarod test score: 3.0 ± 0.0
[3]; [4]
  Rotarod test score: 3.0±0.0

## N#Cc1cc(-c2n[nH]c(-c3ccncc3)n2)ccn1 [compound (b), 4-(5-pyridin-4-yl-1H-[1,2,4]triazol-3-yl)pyridine-2-carbonitrile]
[1]; 70th day after birth, 5 mg/kg
  Beam balance test score: 0.0±0.0
[1]; 75th day after birth, 5 mg/kg
  Beam balance test score: 0.0±0.0
[1]; 80th day after birth, 5 mg/kg
  Beam balance test score: 0.0±0.0
[1]; 85th day after birth, 5 mg/kg
  Beam balance test score: 0.0±0.0
[1]; 90th day after birth, 5 mg/kg
  Beam balance test score: 0.0±0.0
[1]; 95th day after birth, 5 mg/kg
  Beam balance test score: 0.0±0.0
[1]; 100th day after birth, 5 mg/kg
  Beam balance test score: 0.0±0.0
[1]; 105th day after birth, 5 mg/kg
  Beam balance test score: 0.0±0.0
[1]; 110th day after birth, 5 mg/kg
  Beam balance test score: 0.1±0.3
[1]; 115th day after birth, 5 mg/kg
  Beam balance test score: 0.6±0.7
[1]; 120th day after birth, 5 mg/kg
  Beam balance test score: 1.5±0.5
[1]; 125th day after birth
  Beam balance test score: 2.0 ± 0.0
[1]; 130th day after birth
  Beam balance test score: 2.0 ± 0.0
[1]; 135th day after birth
  Beam balance test score: 2.0 ± 0.0
[1]; 140th day after birth
  Beam balance test score: 2.0 ± 0.0
[1]; [5]
  Beam balance test score: 2.0±0.0
[2]; 70th day after birth
  Inclined plane test score: 0.0±0.0
[2]; 75th day after birth
  Inclined plane test score: 0.0±0.0
[2]; 80th day after birth
  Inclined plane test score: 0.0±0.0
[2]; 85th day after birth
  Inclined plane test score: 0.0±0.0
[2]; 90th day after birth
  Inclined plane test score: 0.0±0.0
[2]; 95th day after birth
  Inclined plane test score: 0.0±0.0
[2]; 100th day after birth
  Inclined plane test score: 0.0±0.0
[2]; 105th day after birth
  Inclined plane test score: 0.0±0.0
[2]; 110th day after birth
  Inclined plane test score: 0.0±0.0
[2]
  effect in inclined plane test as compared to placebo group: significant effects
[2]; 115th day after birth
  Inclined plane test score: 0.1±0.3
[2]; 120th day after birth
  Inclined plane test score: 0.6±0.7
[2]; 125th day after birth
  Inclined plane test score: 1.4±0.7
[2]; 130th day after birth
  Inclined plane test score: 2.3±0.7
[2]; 135th day after birth
  Inclined plane test score: 2.9±0.3
[2]; 140th day after birth
  Inclined plane test score: 3.0±0.0
[3]; 70th day after birth, 5 mg/kg
  Rotarod test score: 0.0±0.0
[3]; 75th day after birth, 5 mg/kg
  Rotarod test score: 0.0±0.0
[3]; 80th day after birth, 5 mg/kg
  Rotarod test score: 0.0±0.0
[3]; 85th day after birth, 5 mg/kg
  Rotarod test score: 0.0±0.0
[3]; 90th day after birth, 5 mg/kg
  Rotarod test score: 0.0±0.0
[3]; 95th day after birth, 5 mg/kg
  Rotarod test score: 0.0±0.0
[3]; 100th day after birth, 5 mg/kg
  Rotarod test score: 0.0±0.0
[3]; 105th day after birth, 5 mg/kg
  Rotarod test score: 0.0±0.0
[3]
  effect in rotarod test as compared to placebo group: significant effects
[3]; 110th day after birth, 5 mg/kg
  Rotarod test score: 0.5±0.7
[3]; 115th day after birth, 5 mg/kg
  Rotarod test score: 1.3±1.1
[3]; 120th day after birth, 5 mg/kg
  Rotarod test score: 2.5±0.5
[3]; 125th day after birth
  Rotarod test score: 3.0 ± 0.0
[3]; 130th day after birth
  Rotarod test score: 3.0 ± 0.0
[3]; 135th day after birth
  Rotarod test score: 3.0 ± 0.0
[3]; 140th day after birth
  Rotarod test score: 3.0 ± 0.0
[3]; [5]
  Rotarod test score: 3.0±0.0
